Experimental data from patent US8022055B2, “Betulinic acid derivatives” (Dabur Pharma Limited, priority 2005, dated 2011).
Converted amounts (≈) assume the structure as drawn. Where two headings read alike, the source gives them in different places.

What was measured:
A549 = assay: three day MTT cytotoxicity assay, A549; type: cell-based, human; settings: for IC50 for cell lines A549 / IC50: A549, 72 hours, MTT; for Specific Index (SI) for cell lines A549: ratio of IC50 of NIH 3T3 cells to A549; for IC50: Homo sapiens, read-out: IC50 for cell lines A549
Method: (§1) A number of compounds listed in Table-3 were tested for cytotoxicity against prostate, lung, laryngeal, pancreas, breast, colon and ovarian cancer, leukemia and lymphoma, human tumor cell lines. Briefly, a three day MTT cytotoxicity assay was performed, which is based on the principle of uptake of MTT (3-(4,5-dimethylthiazol-2-yl)-2,5-diphenyl tetrazolium bromide), a tetrazolium salt, by the metabolically active cells where it is metabolized by active mitochondria into a blue colored formazan product that is read spectrophotometrically. MIT was dissolved in phosphate buffered saline with a pH of 7.4 to obtain an MIT concentration of 5 mg/ml; the resulting mixture was filtered through a 0.22-micron filter to sterilize and remove a small amount of insoluble residue. For each type of tumor cell, 10,000 to 15,000 cells were seeded in a 96-well culture plate and incubated with the individual betulinic acid derivatives in a CO2 incubator for a total of 72 hours. Control cells not treated with the betulinic acid derivatives were similarly incubated. The assay was terminated by adding 100 μg (20 μl) of MIT to each well then incubating for additional one hour, and finally adding 50 μl of 10% SDS-0.01N HCl to each well to lyse the cells and dissolve formazan. After incubating for one hour, the plate was read spectrophotometrically at 540 nm and the percentage of cytotoxicity calculated using the following formula: Cytotoxicity percentage=100×[1−(X/R1)], where X=(absorbance of treated sample at 540 nm)−(absorbance of blank at 540 nm) R1=absorbance of control sample at 540 nm. The IC50 Values of the cytotoxicity defined as the concentration at which 50% of the cells are killed in vitro was calculated for each cell line treated with each of the betulinic acid derivatives.

[1] = tested on: various cancer cell lines; assay: in vitro cytotoxicity / anticancer activity, overall statement
PA1 = assay: three day MTT cytotoxicity assay, PA1; type: cell-based, human; settings: for IC50 for cell lines PA1: PA1, 72 hours; for IC50: Homo sapiens, PA-1, PA1, 72 hours, read-out: IC50 for cell lines PA1
Method: (§2) Briefly, a three day MTT cytotoxicity assay was performed, which is based on the principle of uptake of MTT (3-(4,5-dimethylthiazol-2-yl)-2,5-diphenyl tetrazolium bromide), a tetrazolium salt, by the metabolically active cells where it is metabolized by active mitochondria into a blue colored formazan product that is read spectrophotometrically. MIT was dissolved in phosphate buffered saline with a pH of 7.4 to obtain an MIT concentration of 5 mg/ml; the resulting mixture was filtered through a 0.22-micron filter to sterilize and remove a small amount of insoluble residue. For each type of tumor cell, 10,000 to 15,000 cells were seeded in a 96-well culture plate and incubated with the individual betulinic acid derivatives in a CO2 incubator for a total of 72 hours. Control cells not treated with the betulinic acid derivatives were similarly incubated. The assay was terminated by adding 100 μg (20 μl) of MIT to each well then incubating for additional one hour, and finally adding 50 μl of 10% SDS-0.01N HCl to each well to lyse the cells and dissolve formazan. After incubating for one hour, the plate was read spectrophotometrically at 540 nm and the percentage of cytotoxicity calculated using the following formula: Cytotoxicity percentage=100×[1−(X/R1)], where X=(absorbance of treated sample at 540 nm)−(absorbance of blank at 540 nm) R1=absorbance of control sample at 540 nm. The IC50 Values of the cytotoxicity defined as the concentration at which 50% of the cells are killed in vitro was calculated for each cell line treated with each of the betulinic acid derivatives.

SW620 = assay: three day MTT cytotoxicity assay, SW620; type: cell-based, human; settings: for IC50 for cell lines SW620: SW620, 72 hours; for IC50: Homo sapiens, SW-620, SW620, 72 hours, read-out: IC50 for cell lines SW620
Method: as §2

Miapaca = assay: three day MTT cytotoxicity assay, Miapaca; type: cell-based, human; settings: for IC50 for cell lines Miapaca / IC50: 72 hours, MTT, Miapaca; for Specific Index (SI) for cell lines Miapaca: ratio of IC50 of NIH 3T3 cells to Miapaca; for IC50: Homo sapiens, MIA PaCa-2, read-out: IC50 for cell lines Miapaca
Method: as §1

[2] = Pharmacokinetic study after intravenous injection; settings: rat
Method: (§3) Blood samples were taken at various times after administration and plasma was prepared and frozen at −20° C. until analysis. The plasma sample were analyzed by a suitable HPLC method using a C-18 column. The pH of water is adjusted to 3.0 with phosphoric acid. Start the gradient with 70% acetonitrile for 5 minutes and increase the concentration up to 100% within 25 minutes followed by hold at 100% for 10 minutes. It is thus possible to construct the curve showing the plasma concentration as a function of time and to determine different pharmacokinetic parameter of compound studied.

HBL100 = assay: three day MTT cytotoxicity assay, HBL100; type: cell-based, human; settings: for IC50 for cell lines HBL100 / IC50: HBL100, 72 hours, MTT; for Specific Index (SI) for cell lines HBL100: ratio of IC50 of NIH 3T3 cells to HBL100; for IC50: Homo sapiens, HBL-100, read-out: IC50 for cell lines HBL100
Method: as §1

DU145 = assay: three day MTT cytotoxicity assay, DU145; type: cell-based, human; settings: for IC50 for cell lines DU145: DU145, 72 hours; for IC50: Homo sapiens, DU-145, DU145, 72 hours, read-out: IC50 for cell lines DU145
Method: as §1

NIH 3T3 cells = assay: NIH3T3 cytotoxicity test (72 h MTT assay); type: cell-based; settings: NIH3T3, 72 hours
Method: The cytotoxic effect of chemicals upon NIH 3T3 cells in culture is measured by cell metabolism determination using the previously described MIT assay. Healthy NIH 3T3 cells (an established cell-line), when maintained in culture continuously divide and multiply over time. The basis of this test is that a cytotoxic chemical (regardless of site or mechanism of action) will interfere with this process and, thus, result in a reduction of the growth rate as reflected by cell number. The degree of inhibition of growth, related to the concentration of the test compound, provides an indication of toxicity.
The NIH 3T3 cells are maintained in culture and exposed to test compounds over a range of concentrations and the number of viable cells determined after 72 hours exposure by MIT assay. The number of cells in the presence of test chemicals are compared to that observed in control cultures and the percent inhibition of growth calculated. The IC50 concentration (i.e. the concentration producing 50% inhibition of growth) is determined and expressed as μg/ml. A ratio of IC50 of NIH 3T3 cells to tumor cells is an indicator of predicted toxicity of the molecule and is represented as “Safety Index”. The higher the value, the better is the predicted safety of the molecule.

K562 = assay: three day MTT cytotoxicity assay, K562; type: cell-based, human; settings: for IC50 for cell lines K562: K562, 72 hours, MTT; for Specific Index (SI) for cell lines K562: ratio of IC50 of NIH 3T3 cells to K562
Method: as §1

normal cells = settings: literature study; cited from earlier work
[3] = tested on: various cancer cell lines
in vivo = settings: male, Wistar, rat, iv, 10 mg/kg
Method: as §3

tumor = settings: murine xenograft models; cited from earlier work
[4] = rat, in vivo, iv, 10 mg/kg
Method: as §3

[5] = male, Wistar, plasma, iv, 10 mg/kg

Structure (SMILES)	IC50 for cell lines A549 (A549) [µg/mL]	Specific Index (SI) for cell lines A549 (A549)	IC50 for cell lines PA1 (PA1) [µg/mL]	IC50 for cell lines SW620 (SW620) [µg/mL]	IC50 for cell lines Miapaca (Miapaca) [µg/mL]	Specific Index (SI) for cell lines Miapaca (Miapaca)	IC50 for cell lines HBL100 (HBL100) [µg/mL]	Specific Index (SI) for cell lines HBL100 (HBL100)	IC50 for cell lines DU145 (DU145) [µg/mL]	IC50 for cell lines NIH3T3 (NIH 3T3 cells) [µg/mL]	IC50 for cell lines K562 (K562) [µg/mL]	Specific Index (SI) for cell lines K562 (K562)	IC50 (A549) [µg/mL]	IC50 (PA1) [µg/mL]	IC50 (SW620) [µg/mL]	IC50 (Miapaca) [µg/mL]	IC50 (HBL100) [µg/mL]	IC50 (DU145) [µg/mL]	also measured
C=C(C)[C@@H]1CC[C@]2(C(=O)O)CC[C@]3(C)C(CCC4[C@@]5(C)Cc6c([nH]c7ccc(Cl)cc67)C(C)(C)C5CC[C@]43C)C12 (some centres unmarked) [Compound 5, 5′-Chloro-2,3-didehydroindolo[2′,′:2,3]betulinic acid]	7.14 ± 0.5	0.644	2.5	2.7	2.44 ± 0.26	1.885	11.75 ± 1.65	0.391	4.9	4.6 ± 0.14	9.61 ± 0.78	0.478	–	–	–	–	–	–	in vitro cytotoxicity / anticancer activity (in words) [1]: significantly improved anticancer activity over betulinic acid; elimination (Kel) as compared to betulinic acid ([2]; 10 mg/kg intravenous): slower elimination; pharmacokinetic properties (in words) ([2]; 10 mg/kg intravenous): significantly superior pharmacokinetic properties over betulinic acid; plasma concentrations as compared to betulinic acid (II) ([2]; 10 mg/kg intravenous): quite high and long lasting; systemic exposure (AUC0-∞) as compared to betulinic acid ([2]; 10 mg/kg intravenous): better systemic exposure; AUC(0-e) ([2]; 10 mg/kg intravenous, plasma): 78.4 µg·h/mL; C0 ([2]; 10 mg/kg intravenous, plasma): 132.2 µg/mL; T1/2 ([2]; 10 mg/kg intravenous, plasma): 6.7 h; Vd ([2]; 10 mg/kg intravenous, plasma): 0.23 mL
C=C(C)[C@@H]1CC[C@]2(C(=O)O)CC[C@]3(C)[C@H](CC[C@@H]4[C@@]5(C)CC[C@H](O)C(C)(C)[C@@H]5CC[C@]43C)[C@@H]12 [Betulinic Acid (II), 33-hydroxy-lup-20(29)-en-28-oic acid, reference compound]	–	–	–	–	–	–	–	–	–	–	–	–	3.01 (≈ 6.59 µM)	11.5 (≈ 25.2 µM)	13.3 (≈ 29 µM)	> 20	5.02 (≈ 11 µM)	> 20	toxicity against normal cells (normal cells): minimal toxicity against normal cells; AUC [2, 5]: 13900 ng·h/mL; AUC(0-t) [2, 5]: 10600 ng·h/mL; C0 [2, 5]: 36 µg/mL; Vd [2, 5]: 41.6 mL; half-life [2, 5]: 15.9 min; Kel ([2]; 10 mg/kg intravenous, plasma): 2.60 h⁻¹
CC(C)[C@@H]1CC[C@]2(C(=O)O)CC[C@]3(C)C(CCC4[C@@]5(C)CC/C(=N/Oc6ccc([N+](=O)[O-])cc6)C(C)(C)C5CC[C@]43C)C12 (some centres unmarked) [MJ1098-RS (III)]	–	–	–	–	–	–	–	–	–	–	–	–	1.18 (≈ 1.98 µM)	3.63 (≈ 6.12 µM)	3.4 (≈ 5.74 µM)	3.17 (≈ 5.35 µM)	2.82 (≈ 4.76 µM)	0.82 (≈ 1.38 µM)	in vitro cytotoxicity / anticancer activity (in words) [3]: good in vitro cytotoxicity; AUC (in vivo): 43600 ng·h/mL; C0 (in vivo): 101 µg/mL; Vd (in vivo): 0.0006 L; half-life (in vivo): 594 min; tumor reduction (tumor): shows tumor reduction; elimination (Kel) as compared to betulinic acid [4]: slower elimination; plasma concentrations as compared to betulinic acid (II) [4]: quite high and long lasting; systemic exposure (AUC0-∞) as compared to betulinic acid [4]: better systemic exposure
C#CCNC(=O)[C@]12CC[C@@H](C(=C)C)C1C1CCC3[C@@]4(C)Cc5c([nH]c6ccc(Cl)cc56)C(C)(C)C4CC[C@@]3(C)[C@]1(C)CC2 (some centres unmarked) [Compound 27, 28-N-Propargyl-5′-chloro-2,3-didehydroindolo[2′,′:2,3]betulinamide]	>20	–	>20	>20	>20	–	>20	–	>20	>20	>20	–	–	–	–	–	–	–	–
C=C(C)[C@@H]1CC[C@]2(C(=O)O)CC[C@]3(C)[C@H](CC[C@@H]4[C@@]5(C)Cc6c([nH]c7ccc(OC)cc67)C(C)(C)[C@@H]5CC[C@]43C)[C@@H]12 [Compound 10, 2,3-Didehydro-5′-methoxyindolo[2′,′:2,3]betulinic acid]	8.2 ± 0.14	0.915	5.8	8.4	6.4 ± 0.44	1.172	12.8 ± 0.39	0.586	5.75	7.5 ± 0.48	>20	<0.38	–	–	–	–	–	–	–
CC(C)[C@@H]1CC[C@]2(C(=O)O)CC[C@]3(C)C(CCC4[C@@]5(C)Cc6c([nH]c7ccccc67)C(C)(C)C5CC[C@]43C)C12 (some centres unmarked) [Compound 2, 2,3-Didehydro-20,29-dihydroindolo[2′,3′:2,3]betulinic acid]	>20	–	>20	>20	>20	–	>20	–	>20	>20	15.07 ± 2.15	–	–	–	–	–	–	–	–
